Experimental data published in patent US4292249A, “25-Hydroxy-24-oxocholestane derivatives and preparation thereof” (priority 1979, dated 1981).

Experiments:
[1] = target: T1, 1α,25-dihydroxy cholecalciferol-receptor in the chick's intestinal tube (Gallus gallus, UniProt O42392); assay: Combination (binding) with the 1α,25-dihydroxy cholecalciferol-receptor, competitive displacement
T1 construct: 1α,25-dihydroxy cholecalciferol-receptor in the chick's intestinal tube; from tissue; host or cells: chick intestine
T1 sequence (O42392 1-451): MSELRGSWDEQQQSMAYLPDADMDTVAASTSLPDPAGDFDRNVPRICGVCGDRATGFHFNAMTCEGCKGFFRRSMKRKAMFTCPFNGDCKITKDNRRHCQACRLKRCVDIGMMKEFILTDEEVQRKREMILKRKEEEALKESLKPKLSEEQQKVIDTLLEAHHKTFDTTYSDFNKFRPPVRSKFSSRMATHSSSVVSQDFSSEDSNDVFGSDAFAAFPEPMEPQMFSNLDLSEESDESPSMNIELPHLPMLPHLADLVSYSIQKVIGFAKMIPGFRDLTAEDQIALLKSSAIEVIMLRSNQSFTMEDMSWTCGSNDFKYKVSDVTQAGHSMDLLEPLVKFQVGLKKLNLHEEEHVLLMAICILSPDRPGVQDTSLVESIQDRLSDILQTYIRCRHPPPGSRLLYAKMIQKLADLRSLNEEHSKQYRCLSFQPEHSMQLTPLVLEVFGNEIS

[2] = system: calcium absorption at the intestinal tube; assay: Effect to promote calcium absorption from the intestinal tract (everted gut sac method); format: in vivo, Wistar male rats; conditions: vitamin D-deficient rats, 250 ng/head intravenously, measured 4, 8, 24 and 48 hour later
Method: They were killed 4 hour, 8 hour, 24 hour and 48 hour later, and calcium absorption at the intestinal tube was measured by the everted gut sac method [see Martin, D. L. and Deluca, H. F., Amer, J. Physiol.

Compound	50% Displacement ([1]; chick intestinal receptor)	Molar ratio ([1]; relative to 1α,25-dihydroxy cholecalciferol = 1)	time after administration at which the effect on intestinal calcium absorption showed [2]	time for which the effect on intestinal calcium absorption continued [2]
C=C1/C(=C\C=C2/CCC[C@]3(C)[C@@H]([C@H](C)CCC(=O)C(C)(C)O)CC[C@@H]23)C[C@@H](O)C[C@@H]1O [1α,25-dihydroxy-24-oxo-cholecarciferol, 1α,25-dihydroxy-24-oxo cholecalciferol]	138 pg	3	–	–
C=C1CC[C@H](O)C/C1=C/C=C1\CCC[C@]2(C)[C@@H]([C@H](C)CCC(=O)C(C)(C)O)CC[C@@H]12 [25-hydroxy-24-oxo-cholecalciferol, 25-hydroxy-24-oxocholecalciferol]	–	–	about 4 hours	44 h
